The structures appear in SMILES notation. Calls of active or inactive are those of the source. No cut-off for these calls is given here.

One may read the IC50 as the concentration that inhibits the measured activity by half. A higher IC50 goes with a need for much substance. One may read the inhibition as the share of the control response that was lost under treatment. A lower inhibition goes with a weak effect.

The test system of assay [1] is NCI-H929. Briefly: Cytotoxicity against human NCI-H929 cells assessed as reduction in cell viability at 42 nM after 48 hrs by CCK8 assay. The class given is functional, cell-based. For orientation: Tetrazolium dyes change colour on reduction, which living cells bring about.
Assay [2] relates to RPMI-8226. Put plainly: Cell cycle arrest in human RPMI8226 cells assessed as reduction in accumulation at G2/M phase at 42 nM in presence of bortezomib after 48 hrs by propidium iodide/RNase staining based flow cytometric method relative to bortezomib. It counts as functional. (In flow cytometry, cells or beads pass a laser one at a time.)
Assay [3] concerns the target T1, Prostaglandin G/H synthase 2 (Homo sapiens, UniProt P35354).
T1 sequence (P35354 whole entry): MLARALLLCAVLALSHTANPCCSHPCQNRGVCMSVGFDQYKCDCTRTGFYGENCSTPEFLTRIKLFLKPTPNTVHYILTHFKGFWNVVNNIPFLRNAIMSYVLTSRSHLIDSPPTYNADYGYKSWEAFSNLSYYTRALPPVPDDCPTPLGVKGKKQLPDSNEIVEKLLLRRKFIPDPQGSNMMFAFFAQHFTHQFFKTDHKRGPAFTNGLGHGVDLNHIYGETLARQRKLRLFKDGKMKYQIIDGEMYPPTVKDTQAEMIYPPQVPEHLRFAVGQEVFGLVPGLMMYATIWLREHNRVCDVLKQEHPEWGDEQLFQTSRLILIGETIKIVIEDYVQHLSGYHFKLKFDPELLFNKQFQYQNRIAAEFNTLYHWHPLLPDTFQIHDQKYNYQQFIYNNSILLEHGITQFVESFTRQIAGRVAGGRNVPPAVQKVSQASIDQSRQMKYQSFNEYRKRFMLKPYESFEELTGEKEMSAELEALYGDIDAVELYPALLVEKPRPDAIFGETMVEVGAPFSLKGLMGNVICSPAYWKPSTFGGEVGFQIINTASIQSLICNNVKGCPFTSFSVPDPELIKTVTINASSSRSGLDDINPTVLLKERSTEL
Briefly: Inhibition of human COX2 using arachidonic acid as substrate by colorimetric assay.

Assay [4] has as its system NCI-H929. Briefly: Induction of apoptosis in human NCI-H929 cells assessed as viable cells at 42 nM after 48 hrs by Annexin-V/propidium iodide staining based flow cytometric method (reference value: 82.6%). It counts as functional. Conditions: NCI-H929, 48 h, read-out: Activity.
The test system of assay [5] is NCI-H929. Briefly: Induction of apoptosis in human NCI-H929 cells assessed as late apoptotic cells at 42 nM after 48 hrs by Annexin-V/propidium iodide staining based flow cytometric method (reference value: 0.23%). The class given is functional.
The subject of assay [6] is NCI-H929. Briefly: Induction of apoptosis in human NCI-H929 cells assessed as viable cells at 42 nM after 48 hrs in presence of bortezomib by Annexin-V/propidium iodide staining based flow cytometric method (reference value: 82.6%). The class given is functional. Conditions: NCI-H929, 48 h, read-out: Activity.
Assay [7] addresses T2, Prostaglandin G/H synthase 1 (Ovis aries) (UniProt P05979).
T2 sequence (whole entry): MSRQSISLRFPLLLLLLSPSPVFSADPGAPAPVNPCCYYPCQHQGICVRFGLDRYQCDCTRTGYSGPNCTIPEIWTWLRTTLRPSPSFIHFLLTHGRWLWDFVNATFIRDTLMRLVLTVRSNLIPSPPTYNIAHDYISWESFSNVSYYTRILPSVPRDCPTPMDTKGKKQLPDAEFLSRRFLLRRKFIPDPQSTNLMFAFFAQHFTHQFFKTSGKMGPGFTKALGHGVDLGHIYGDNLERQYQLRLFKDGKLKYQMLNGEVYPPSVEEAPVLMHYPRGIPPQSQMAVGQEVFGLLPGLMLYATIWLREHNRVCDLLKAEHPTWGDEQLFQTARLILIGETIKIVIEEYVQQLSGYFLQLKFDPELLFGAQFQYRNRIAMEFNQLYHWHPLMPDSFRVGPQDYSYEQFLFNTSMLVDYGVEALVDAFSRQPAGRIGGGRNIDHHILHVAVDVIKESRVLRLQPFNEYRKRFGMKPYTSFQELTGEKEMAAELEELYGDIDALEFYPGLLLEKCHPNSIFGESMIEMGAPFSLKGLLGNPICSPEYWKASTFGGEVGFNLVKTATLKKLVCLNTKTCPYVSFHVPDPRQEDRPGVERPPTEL
Put plainly: Inhibition of ovine COX1 at 50 uM using arachidonic acid as substrate by colorimetric assay relative to control.

Assay [8] relates to RPMI-8226. Put plainly: Cell cycle arrest in human RPMI8226 cells assessed as accumulation at S phase at 42 nM in presence of bortezomib after 48 hrs by propidium iodide/RNase staining based flow cytometric method relative to bortezomib. The class given is functional.
Assay [9] has as its system RPMI-8226. Put plainly: Induction of apoptosis in human RPMI8226 cells assessed as viable cells at 42 nM after 48 hrs in presence of bortezomib by Annexin-V/propidium iodide staining based flow cytometric method (reference value: 98.7%). It counts as functional. The settings on record: RPMI-8226, 48 h, read-out: Activity.

Take `C=Cc1onc(-c2ccc(OC)cc2)c1-c1ccc(OC)cc1`: the result in the assay with NCI-H929 [1] was inactive. Also, the result with RPMI-8226 [2] and in the assay on RPMI-8226 [8] was Active. This compound registered an IC50 in assay [3] greater than 50 µM. Moreover, the viability at 0.042 µM in the assay on NCI-H929 [4] is 83%; in the assay with NCI-H929 [6] it was 39.2%; in the assay with RPMI-8226 [9], 89.9%. Besides, the Activity in the assay on NCI-H929 [5] is given as 0.11%. The compound further came in with an inhibition in [7] of 100%.

For the origin of these results see ChEMBL document CHEMBL4422618, “Translational impact of novel widely pharmacological characterized mofezolac-derived COX-1 inhibitors combined with bortezomib on human multiple myeloma cell lines viability” (Eur J Med Chem, 2019).
